Source: the supplement of paper PMC10307832

Key:
Assay in all cases: relative viability (nuclei count vs DMSO), 5 days (fraction); higher = more cells survive
Cediranib + AZD7762 = compound: COc1cc2c(Oc3ccc4[nH]c(C)cc4c3F)ncnc2cc1OCCCN1CCCC1 [Cediranib] + NC(=O)Nc1cc(-c2cccc(F)c2)sc1C(=O)N[C@H]1CCCNC1 [AZD7762] (partner 0.2 µM)
Summary of the method: (§1)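 Lung cancer cell lines were seeded in 1536-well plates and dosed by pin tool the next day, with either a single drug or a fixed anchor-drug dose combined with five library-drug doses (not always all listed) spaced in √10 steps. Five days later, one step fixed the cells and stained their nuclei (final 0.05% Triton X-100, 1% formaldehyde, 1 ug/ml Hoechst), and nuclei were counted on 4× images. Relative viability is the nuclei count in treated wells divided by the count in vehicle wells, and each value is the median of duplicate plates.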

Decitabine + Foretinib = compound: Nc1ncn([C@H]2C[C@H](O)[C@@H](CO)O2)c(=O)n1 [Decitabine] + COc1cc2c(Oc3ccc(NC(=O)C4(C(=O)Nc5ccc(F)cc5)CC4)cc3F)ccnc2cc1OCCCN1CCOCC1 [Foretinib] (partner 0.25 µM)
Summary of the method: as §1

Decitabine + Linsitinib = compound: Nc1ncn([C@H]2C[C@H](O)[C@@H](CO)O2)c(=O)n1 [Decitabine] + C[C@]1(O)C[C@@H](c2nc(-c3ccc4ccc(-c5ccccc5)nc4c3)c3c(N)nccn32)C1 [Linsitinib] (partner 1 µM)
Summary of the method: as §1

[1] = compound: O=C(C[C@H]1NCCC[C@@H]1O)Cn1cnc2cc(Br)c(Cl)cc2c1=O (racemic) [Halofuginone] + C[C@@H](Oc1cc(-c2cnn(C3CCNCC3)c2)cnc1N)c1c(Cl)ccc(F)c1Cl [Crizotinib] (partner 1 µM)
Summary of the method: as §1

Cell Line	relative viability (Cediranib + AZD7762; first compound 0.04 µM)	relative viability (Cediranib + AZD7762; first compound 0.1265 µM)	relative viability (Cediranib + AZD7762; first compound 0.4 µM)	relative viability (Cediranib + AZD7762; first compound 1.265 µM)	relative viability (Cediranib + AZD7762; first compound 4 µM)	relative viability (Decitabine + Foretinib; first compound 0.04 µM)	relative viability (Decitabine + Foretinib; first compound 0.1265 µM)	relative viability (Decitabine + Foretinib; first compound 0.4 µM)	relative viability (Decitabine + Foretinib; first compound 1.265 µM)	relative viability (Decitabine + Foretinib; first compound 4 µM)	relative viability (Decitabine + Linsitinib; first compound 0.04 µM)	relative viability (Decitabine + Linsitinib; first compound 0.1265 µM)	relative viability (Decitabine + Linsitinib; first compound 0.4 µM)	relative viability (Decitabine + Linsitinib; first compound 1.265 µM)	relative viability (Decitabine + Linsitinib; first compound 4 µM)	relative viability ([1]; first compound 0.001 µM)	relative viability ([1]; first compound 0.003162 µM)	relative viability ([1]; first compound 0.01 µM)	relative viability ([1]; first compound 0.03162 µM)	relative viability ([1]; first compound 0.1 µM)
201T	0.705	0.445	0.607	0.521	0.618	1.18	1.35	1.02	0.744	0.727	1.06	1.16	1.3	1.1	0.924	0.966	1.02	1.04	1.05	0.964
A549						0.719	0.634	0.448	0.143	0.0978	0.535	0.731	0.554	0.299	0.151	0.824	0.75	0.611	0.338	0.0443
A-427	0.816		0.685	0.659	0.707	0.653	0.635	0.354	0.264	0.242	0.807	0.674	0.446	0.368	0.275	0.941	0.911	0.795	0.807	0.764
ABC-1	0.635	0.729	0.813	0.905	0.723	0.979	0.912	0.763	0.839	0.67	0.705	0.677	0.639	0.611	0.523	1.09	1.08	0.954	1.26	1.15
BEN	0.772	0.587	0.649	0.517	0.696	0.596	0.566	0.35	0.437	0.38	0.994	0.809	0.671	0.46	0.43	0.979	0.784	1.07	0.772	0.479
CAL-12T	0.668	0.638	0.633	0.603	0.669	1.08	0.883		0.618	0.419	0.657	0.805	0.494	0.451	0.347	0.733	0.835	0.527	0.834	0.237
COR-L23						0.597	0.605	0.473	0.353	0.246	0.647	0.482	0.374	0.272	0.19	0.822	0.78	0.624	0.62	0.0779
COR-L 105						1.2	0.98	0.881	0.633	0.554	1.02	0.768	0.738	0.506	0.486	1.01	0.853	0.722	0.718	0.515
Calu-6						0.698	0.525	0.275	0.243	0.217	0.807	0.682	0.494	0.33	0.193	0.882	0.814	0.82	0.407	0.151
ChaGo-K-1	0.843	0.684	0.886	0.9	0.948	0.819	0.683	0.507	0.376	0.421						1.18	1.2	1.03	1.11	0.975
EBC-1						0.0865	0.0957	0.106	0.0836	0.0866	0.693	0.704	0.417	0.316	0.247	0.186	0.202	0.188	0.223	0.2
EKVX	0.731	0.609	0.636		0.798	0.65	0.995	0.605	0.353	0.365	0.792	0.854	0.657	0.386	0.306	0.921	0.9	1.04	0.891	0.635
EMC-BAC-2	1.06	0.952	1.11	1.07	1.15	0.936	0.861	0.762	0.66	0.588	0.797	0.81	0.652	0.612	0.583	0.856	0.805	0.778	0.769	0.32
EPLC-272H	0.2		0.272	0.175	0.259		0.611	0.0722	0.304	0.35	0.811	0.939		0.596	0.548	0.871	0.928	0.879	0.807	0.774
H3255	0.889	0.811	0.924	0.824	0.886		0.652	0.484	0.587	0.513	0.488	0.88	0.551	0.554	0.468	0.94	0.948	0.875	0.952	0.791
HARA	0.35	0.279	0.234	0.267	0.251	0.641	0.558	0.387	0.215	0.165	0.896	0.776	0.69	0.382	0.312	1.17	1.05	0.985	1.05	0.943
HCC-15	1.39		1.18	1.35	1.11	0.939	0.957	0.542	0.56	0.434	0.777	0.772	0.562	0.51	0.434	0.827	0.887	0.737	0.826	0.657
HCC-44	1.09	0.843	1	0.941	1.04						0.686	0.644	0.495	0.292	0.351	0.89	0.833	0.72	0.745	0.516
